Reference: ChEMBL document CHEMBL5543066, “Dual COX-2/15-LOX inhibitors: A new avenue in the prevention of cancer” (Eur J Med Chem, 2023)

System: not listed separately
Test: Inhibition of soybean 15-LOX
Design: species or system Glycine max
Settings: not given

| SMILES | IC50 [µM] |
| --- | --- |
| COc1ccc2cc([C@H](C)C(=O)O)ccc2c1 [NAPROXEN] | 3.52 |
| O=c1cc(-c2ccccc2)oc2cc(O)c(O)c(O)c12 [BAICALEIN] | 22.5 |
| CC(=O)Nc1ccc(O)cc1 [ACETAMINOPHEN] | 6.52 |
| CC(C)(C)Nc1c(-c2cc3ccccc3nc2Cl)nc2sccn12 | ≤ 40 |
| O=C(O)Cc1ccccc1Nc1c(Cl)cccc1Cl [DICLOFENAC] | 24.8 |
| O=C(Cc1ccccc1Nc1c(Cl)cccc1Cl)N/N=C1\C(=O)N(Cc2ccccc2)c2ccc(Cl)cc21 | 4.61 |
| O=c1c(O)c(-c2ccc(O)c(O)c2)oc2cc(O)cc(O)c12 [QUERCETIN] | 4.84 |
| Cc1cccc(Nc2ccccc2C(=O)O)c1C [MEFENAMIC ACID] | 24.8 |
| CC(c1cc2ccccc2s1)N(O)C(N)=O (stereo not drawn) [ZILEUTON] | 15 |
| CN1C(C(=O)Nc2ccccn2)=C(O)c2ccccc2S1(=O)=O [PIROXICAM] | 62.6 |
| Cc1ccc(OCc2nnc(SCC(=O)Nc3ccccc3)o2)cc1 | 21.5 |
| O=C(Cc1ccccc1Nc1c(Cl)cccc1Cl)N/N=C1\C(=O)N(Cc2ccccc2)c2ccccc21 | 6.64 |
| CN1C(C(=O)Nc2ccccn2)=C(O)c2sccc2S1(=O)=O [TENOXICAM] | 49.5 |
| C=CCc1cc(NC(=O)C23CC4CC(CC(C4)C2)C3)ccc1OC(C)C | 1.35 |
| CC(C(=O)O)c1cccc(C(=O)c2ccccc2)c1 (stereo not drawn) [KETOPROFEN] | 24.8 |
| CC(=O)Oc1ccccc1C(=O)O [ASPIRIN] | 4.62 |

Biological target: T1, Prostaglandin G/H synthase 2 (Homo sapiens, UniProt P35354)
T1 sequence (P35354 whole entry): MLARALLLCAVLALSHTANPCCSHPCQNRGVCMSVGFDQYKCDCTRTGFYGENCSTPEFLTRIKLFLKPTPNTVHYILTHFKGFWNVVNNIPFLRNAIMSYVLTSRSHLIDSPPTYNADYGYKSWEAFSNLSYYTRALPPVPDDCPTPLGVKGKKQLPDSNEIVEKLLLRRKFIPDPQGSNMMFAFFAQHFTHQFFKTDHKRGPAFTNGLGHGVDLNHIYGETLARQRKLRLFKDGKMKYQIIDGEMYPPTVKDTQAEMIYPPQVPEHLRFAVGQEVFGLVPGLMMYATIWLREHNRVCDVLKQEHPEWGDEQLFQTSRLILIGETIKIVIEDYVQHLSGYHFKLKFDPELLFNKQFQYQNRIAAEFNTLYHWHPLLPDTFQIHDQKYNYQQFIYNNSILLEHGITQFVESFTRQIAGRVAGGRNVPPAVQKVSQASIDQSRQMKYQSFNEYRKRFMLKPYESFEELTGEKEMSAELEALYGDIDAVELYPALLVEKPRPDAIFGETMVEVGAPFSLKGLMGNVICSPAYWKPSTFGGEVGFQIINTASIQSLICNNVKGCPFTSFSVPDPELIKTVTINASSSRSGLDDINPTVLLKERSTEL
Test: Inhibition of COX-2 (unknown origin) by Enzyme immune assay
Settings: not given

| SMILES | IC50 [µM] |
| --- | --- |
| COc1ccc2cc(C(C)C(=O)ON=C(N)c3ccc4c(c3)OCO4)ccc2c1 (stereo not drawn) | 0.0064 |
| COc1ccc2cc(C(C)C(=O)ON=C(N)c3ccc(-c4ccccc4)c(-c4ccccc4)c3)ccc2c1 (stereo not drawn) | 0.00177 |
| COc1ccc2cc(C(C)C(=O)O/N=C(\N)c3ccc(Cl)cc3)ccc2c1 (stereo not drawn) | 0.0064 |
| COc1ccc(/C(N)=N/OC(=O)C(C)c2ccc3cc(OC)ccc3c2)cc1 (stereo not drawn) | 0.0064 |
| COc1ccc2cc(C(C)C(=O)O/N=C(\N)c3ccc(OC)c(OC)c3)ccc2c1 (stereo not drawn) | 0.0064 |
| Cc1ccc(Cl)c(Nc2ccccc2C(=O)O)c1Cl [MECLOFENAMATE SODIUM] | 0.00564 |

Biological target: T1, Prostaglandin G/H synthase 2
Test: Inhibition of human recombinant COX-2
Settings: not given

| SMILES | IC50 [µM] |
| --- | --- |
| CN(C)c1ccc(/C=C/C(=O)c2cc(-n3cc(CN4C(=O)C(=O)c5ccccc54)nn3)ccc2O)cc1 | 1.41 |
| O=C(/C=C/c1ccc(Br)cc1)c1cc(-n2cc(CN3C(=O)C(=O)c4ccccc43)nn2)ccc1O | 1.41 |
| COc1ccc(/C=C/C(=O)c2cc(-n3cc(CN4C(=O)C(=O)c5ccccc54)nn3)ccc2O)cc1 | 1.41 |

System: Rattus norvegicus
Test: Anti-inflammatory activity against carrageenan-induced paw edema in Wistar albino rat assessed as inhibition of paw edema at 50 mg/kg, sc administered for 14 days relative to control
Assay type: functional
Design: scale not given: the % may be the effect or the level left
Settings: time 14 day

| SMILES | Activity [%] |
| --- | --- |
| CCOc1cc(N)n2nc(Nc3cc(OC)ccn3)c(C#N)c2n1 | 46 |

System: not listed separately
Test: Inhibition of soybean 15-LOX by chemiluminescence based analysis
Design: species or system Glycine max
Settings: not given

| SMILES | IC50 [µM] |
| --- | --- |
| COc1ccc(Cn2cc(COc3ccc(/C=C4\SC(=O)NC4=O)cc3)nn2)cc1 | 5.24 |
| Cc1cccc(NC(=O)CSc2nnc(C3CCN(C(=O)Nc4ccccc4)CC3)o2)c1 | 26.1 |
| O=C(CSc1nnc(C2CCN(C(=O)Nc3ccccc3)CC2)o1)Nc1ccccc1 | 26.1 |
| Cc1ccc(C)c(NC(=O)CSc2nnc(C3CCN(C(=O)Nc4ccccc4)CC3)o2)c1 | 26.1 |
| CCc1ccc(NC(=O)CSc2nnc(C3CCN(C(=O)Nc4ccccc4)CC3)o2)cc1 | 26.1 |
| CCCNC(=O)CSc1nnc(C2CCN(C(=O)Nc3ccccc3)CC2)o1 | 9.32 |
| Cc1ccc(NC(=O)CSc2nnc(C3CCN(C(=O)Nc4ccccc4)CC3)o2)cc1C | 26.1 |
| Cc1cccc(C)c1NC(=O)CSc1nnc(C2CCN(C(=O)Nc3ccccc3)CC2)o1 | 18.4 |
| CCc1ccccc1NC(=O)CSc1nnc(C2CCN(C(=O)Nc3ccccc3)CC2)o1 | 7.15 |
| Cc1ccc(NC(=O)CSc2nnc(C3CCN(C(=O)Nc4ccccc4)CC3)o2)c(C)c1 | 26.1 |
| CCN(CC)C(=O)CSc1nnc(C2CCN(C(=O)Nc3ccccc3)CC2)o1 | 15.8 |
| Cc1cc(C)cc(NC(=O)CSc2nnc(C3CCN(C(=O)Nc4ccccc4)CC3)o2)c1 | 26.1 |
| O=C(CSc1nnc(C2CCN(C(=O)Nc3ccccc3)CC2)o1)NC1CCCCC1 | 26.1 |

System: Mononuclear cell line
Test: Induction of apoptosis in human Mononuclear cell line assessed as early apoptosis at 10 uM incubated for 48 hrs by AnnexinV-FITC/PI staining based flow cytometry relative to control
Assay type: functional
Settings: not given

| SMILES | Activity [%] |
| --- | --- |
| Cc1ccc(NC(=O)CSc2nnc(C3CCN(C(=O)Nc4ccccc4)CC3)o2)c(C)c1 | 79.5 |
| CCN(CC)C(=O)CSc1nnc(C2CCN(C(=O)Nc3ccccc3)CC2)o1 | 79.5 |
| O=c1c(O)c(-c2ccc(O)c(O)c2)oc2cc(O)cc(O)c12 [QUERCETIN] | 4.26 |
| Cc1cc(C)cc(NC(=O)CSc2nnc(C3CCN(C(=O)Nc4ccccc4)CC3)o2)c1 | 79.5 |
